Patent publication US9763985B2, “Antigen-specific central-memory T cell preparations having high CD4+ fraction” (priority 2011, dated 2017)

Columns and labels:
Format in all cases: cell-based, human
[1] = test system: CMV-specific T cells; experiment: CD4+ and CD8+ expression of CMV-specific T cells after 18 days of expansion (flow cytometry); conditions: for CD4+/CD8+ T cell ratio: after 18 days of expansion, Sirolimus LD 20 nmol/l or VLD 2 nmol/l, aIL2R 20 μg/mL, every 2 days; for CD4+ T cell proportion in the culture: after 18 d expansion
Protocol: (§1) CMV-specific T-cells were enriched and expanded using a previously described technique (Becker et al., Nat. Med. 2001, 7, 1159-62). Briefly, 4×10^7 autologous PBMCs were stimulated for 6 h with 1 μg/mL overlapping human cytomegalovirus phosphoprotein 65 (pp65) and immediately early 1 protein (IE1) peptide pools (JPT Peptide Technologies). Pools consisted of 15-mer peptides overlapping by 10 amino acids and were dissolved in dimethyl sulfoxide (DMSO). IFNγ producing cells underwent positive selection by the IFNγ capture-system (Miltenyi Biotech) according to the protocol provided by the manufacturer. IFNγ+ cells were next cultured for 18 days in 24-well plates together with 10^7 irradiated autologous PBMCs using RPMI 1640 supplemented with 10% fetal bovine serum 1% Penicillin/Streptomycin (Biochrom) and 50 U/mL rIL2 (Chiron) and 10 ng/mL rIL7 (Cellgenix) or solitary when indicated elsewise. Where indicated, either mTor-inhibitor (sirolimus, Sigma-Aldrich) at very low dose (VLD, 2 nM) and low dose (LD, 20 nM) or IL2 receptor antagonist (Basiliximab, Simulect, Novartis) at 20 μg/mL were added from day 1 on every two days together with subsequent media supplementation.
Following antigen specific stimulation, cytokine secretion (IFNγ, TNFα and IL2) and activation marker expression (CD137 and CD154) were determined by intracellular fluorescence staining. All antibodies were purchased from Becton Dickinson (BD), except indicated. Virus infected monocytes and peptide-pool loaded LCL or monocytes (1 μg/mL IE-1/pp65) were added to T cells in diluting ratio of 1:10. Unpulsed LCL or monocytes (DMSO incubated) display unstimulated control. For effector cytokine detection, cultured T cells were re-stimulated for 18 h in the presence of 1 μg/mL brefeldin A (Sigma-Aldrich). For CD107a (H4A3) detection, 2 μM monensin (Golgi Stop, BD) was ancillary added. Cells were then harvested and phenotype was stained with monoclonal antibodies for surface markers CD3 (UCHT1, eBioscience), CD8 (3B5, Invitrogen) and CD4 (SK3). To define memory phenotypes, T cells were extracellularly stained for CCR7 (#150503, R&D), CD62L (DREG56, Beckman Coulter), CD45RA (2H4LDH11LDB9, Beckman Coulter) and CD127 (hIL-7R-M21). To exclude dead cells, live/dead-discrimination staining-dye (Invitrogen) was added. Subsequently, cells were permeabilized with Perm2 solution (BD Biosciences) and stained for IFNγ (4S.B3, eBiosciences), TNFα (MAb11), IL2 (MQ1-17H12), CD137 (4B4-1) and CD154 (TRAP1). To define regulatory T cells, T cells were stained intranuclear for Foxp3 (259D/C7) and Helios (22F6, BioLegend). For intracellular staining of Foxp3 and Helios, Foxp3 staining kit from eBioscience was used. Cells were measured with a LSR-II flow cytometer and analyzed using FlowJo Version 8 software (Tree Star). […]

[2] = test system: CMV-specific T cells; experiment: Differentiation / central memory phenotype (CCR7, CD45RA, CD62L, CD127) of expanded CMV-specific T cells; conditions: for CD62L expression on purified CD8+ T cells: CD8+ T cells cultured separately; for CD62L expression on purified CD8+ T cells / CD62L expression, CD8+ T cell bulk cultures and separately cultured CD4+ T cells: FIG. 12; for expression of the cell surface marker CD62L: CMV specific T-cell lines, day 18, six independent experiments; for central/memory T cells (CCR7+ CD45RA-): after 18 days of expansion; for expansion rate and keeping the TCM phenotype with full functionality: cultivation with both IL-2 and IL-7, FIG. 13; for CD62L expression, CD8+ T cell bulk cultures and separately cultured CD4+ T cells: rapamycin LD; for TCM formation: together with either IL-2 or IL-7, FIG. 13, four independent experiments
Protocol: as §1
(§2) Following antigen specific stimulation, cytokine secretion (IFNγ, TNFα and IL2) and activation marker expression (CD137 and CD154) were determined by intracellular fluorescence staining. All antibodies were purchased from Becton Dickinson (BD), except indicated. Virus infected monocytes and peptide-pool loaded LCL or monocytes (1 μg/mL IE-1/pp65) were added to T cells in diluting ratio of 1:10. Unpulsed LCL or monocytes (DMSO incubated) display unstimulated control. For effector cytokine detection, cultured T cells were re-stimulated for 18 h in the presence of 1 μg/mL brefeldin A (Sigma-Aldrich). For CD107a (H4A3) detection, 2 μM monensin (Golgi Stop, BD) was ancillary added. Cells were then harvested and phenotype was stained with monoclonal antibodies for surface markers CD3 (UCHT1, eBioscience), CD8 (3B5, Invitrogen) and CD4 (SK3). To define memory phenotypes, T cells were extracellularly stained for CCR7 (#150503, R&D), CD62L (DREG56, Beckman Coulter), CD45RA (2H4LDH11LDB9, Beckman Coulter) and CD127 (hIL-7R-M21). To exclude dead cells, live/dead-discrimination staining-dye (Invitrogen) was added. Subsequently, cells were permeabilized with Perm2 solution (BD Biosciences) and stained for IFNγ (4S.B3, eBiosciences), TNFα (MAb11), IL2 (MQ1-17H12), CD137 (4B4-1) and CD154 (TRAP1). To define regulatory T cells, T cells were stained intranuclear for Foxp3 (259D/C7) and Helios (22F6, BioLegend). For intracellular staining of Foxp3 and Helios, Foxp3 staining kit from eBioscience was used. Cells were measured with a LSR-II flow cytometer and analyzed using FlowJo Version 8 software (Tree Star). Lymphocytes were gated based on the FSC versus SSC profile and subsequently gated on FSC (height) versus FSC to exclude doublets.

[3] = test system: CMV-specific T cells; experiment: Intracellular cytokine and activation marker staining after antigen specific stimulation with peptide loaded APCs; conditions: for quantity and quality of virus-specific T cells: in vitro
Protocol: as §2
CD4+ and CD8+ T cells (A Sirolimus; B aIL2R antagonist). Frequencies were assessed following antigen specific stimulation. Specific T-cells were stimulated for 18 h (16 h Brefeldin A) w/peptide loaded APCs in ratio of 1:10. APCs were pulsed with 1 μg/mL IE-1/pp65 peptide pool. IFNγ, TNFα and IL2 cytokine secretion and CD137 and CD154 activation marker expression were determined by intracellular staining. Cells were permeabilized and stained for IFNγ, IL2, TNFα, live/dead dye, CD3, CD4, CD8, CD137 and CD154.

[4] = test system: CMV strain NEWT infected autologous monocytes; experiment: Response of expanded T cells to NEWT infected autologous monocytes / iDC; conditions: co-culture 18 h, T cell/target ratio 10:1
Protocol: Differentiated monocytes infected with CMV-related laboratory wildtype strain NEWT were used as targets. To mimic CMV-infection, autologous LCL were pulsed with 1 μg/mL overlapping CMVpp65/IE-1 peptide pools, whereas unpulsed LCL display uninfected targets. Targets were labeled with 10 μM carboxyfluorescein succinimidyl ester (CFDA-SE Molecular Probes). As controls, unpulsed LCL and uninfected differentiated monocytes (Fibroblast incubated) were labeled with 5 μM dimethyldodecylamine oxide-succinimidyl ester (Far Red; Invitrogen). Cells were co-cultured for 16 h in T cell/target ratio of 10:1. Probes were analyzed as triplicates using LSR-II flow cytometer. […] Analysis was gated on live/dead-discrimination staining-dye negative cells (near-IR fluorescent reactive dye, Invitrogen). The mean percent survival of pulsed or NEWT infected targets was calculated relative to antigen-unpulsed controls. Percentaged lytic activity of target lysis was calculated as follows: mean percent survival of targets in cultures containing defined numbers of effector T cells in comparison to control cells without T cells. […]
Following antigen specific stimulation, cytokine secretion (IFNγ, TNFα and IL2) and activation marker expression (CD137 and CD154) were determined by intracellular fluorescence staining. […] Cells were measured with a LSR-II flow cytometer and analyzed using FlowJo Version 8 software (Tree Star). […]

[5] = test system: CMV-specific T cells; experiment: Expansion of CMV-specific T cell culture over 18 days; conditions: for expansion of central memory T cells (TCM): after 18 d of treatment, FIG. 4D
Protocol: as §1

[6] = day 18, after antigen specific stimulation

Row | Molecule | CD4+/CD8+ T cell ratio [1] | CD4+ T cell proportion in the culture [1] | CD62L expression on purified CD8+ T cells [2] | expression of the cell surface marker CD62L [2] | central/memory T cells (CCR7+ CD45RA-) [2] | expansion rate and keeping the TCM phenotype with full functionality [2] | CD62L expression, CD8+ T cell bulk cultures and separately cultured CD4+ T cells [2] | TCM formation [2] | CD137 activation marker expression on CD8+ T cells [3, 6] | CD137 and CD154 activation marker expression on CD4+ T cells [3, 6] | quantity and quality of virus-specific T cells [3] | response to NEWT infected autologous monocytes (IFNγ, TNFα, CD137, CD154) [4] | clonal expansion ([5]; 18 days of expansion) | expansion of central memory T cells (TCM) [5]
1 | CO[C@H]1C[C@@H]2CC[C@@H](C)[C@@](O)(O2)C(=O)C(=O)N2CCCC[C@H]2C(=O)O[C@H]([C@H](C)C[C@@H]2CC[C@@H](O)[C@H](OC)C2)CC(=O)[C@H](C)/C=C(\C)[C@@H](O)[C@@H](OC)C(=O)[C@H](C)C[C@H](C)/C=C/C=C/C=C/1C [Sirolimus] | more balanced CD4+/CD8+ T cell ratio | increased the CD4+ T cell proportion | could not be enhanced | significant prolonged expression | significantly increases central/memory T cells | best results | increased CD62L expression | promotes TCM formation | dose-dependent elevated | not impaired | enhance the quantity and quality | superiorly respond | without affecting clonal expansion | sequential expansion of both CD4 and CD8 central memory T cells
2 | Basiliximab [aIL2R] | more balanced CD4+/CD8+ T cell ratio |  | could not be enhanced | significant prolonged expression | significantly increases central memory T cells | best results | increased CD62L expression | promotes TCM formation | dose-dependent elevated |  |  | superiorly respond |  | sequential expansion of both CD4 and CD8 central memory T cells
3 | Daclizumab (antibody, chains of the INN, looked up, V domains shown, humanized monoclonal antibody against the alpha chain of IL2-receptor complex, CAS number 152923-59-3; b50 calls it Simulect) VH: QVQLVQSGAEVKKPGSSVKVSCKASGYTFTSYRMHWVRQAPGQGLEWIGYINPSTGYTEYNQKFKDKATITADESTNTAYMELSSLRSEDTAVYYCARGGGVFDYWGQGTLVTVSS VL: DIQMTQSPSTLSASVGDRVTITCSASSSISYMHWYQQKPGKAPKLLIYTTSNLASGVPARFSGSGSGTEFTLTISSLQPDDFATYYCHQRSTYPLTFGQGTKVEVK |  | increased the CD4+ T cell proportion |  |  |  |  |  |  |  |  | enhance the quantity and quality |  |  | 
